Consider 49 molecules from patent US20250326772A1, “MRGPRX2 ANTAGONISTS, PHARMACEUTICAL COMPOSITION INCLUDING MRGPRX2 ANTAGONIST, AND METHOD OF TREATING MRGPRX2-MEDIATED DISEASE OR DISORDER” (KYORIN PHARMACEUTICAL CO., LTD., priority 2024, published 2025).

One assay has as its target T1, MRGPRX2 (Homo sapiens, UniProt Q96LB1).
T1 sequence (Q96LB1 1-330): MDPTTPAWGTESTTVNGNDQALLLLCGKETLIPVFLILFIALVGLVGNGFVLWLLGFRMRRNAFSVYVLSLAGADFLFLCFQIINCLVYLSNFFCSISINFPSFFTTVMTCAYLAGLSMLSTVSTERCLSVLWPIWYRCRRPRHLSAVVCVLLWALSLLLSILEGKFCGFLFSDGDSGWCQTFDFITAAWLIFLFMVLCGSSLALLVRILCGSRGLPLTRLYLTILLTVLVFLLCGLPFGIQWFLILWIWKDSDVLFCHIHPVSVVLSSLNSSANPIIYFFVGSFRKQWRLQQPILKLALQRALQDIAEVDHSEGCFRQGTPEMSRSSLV
Put plainly: MRGPRX2 reporter cell assay (NFAT-RE luciferase, Substance P stimulation). In kind it is cell-based. To be noted: U2OS cells stably transfected with MRGPRX2 and NFAT-RE luciferase reporter; Substance P at EC80. The method, then: MRGPRX2 Reporter Cell Assays U2OS cells (ATCC, Manassas, VA) were stably transfected with MRGPRX2 expression clones (GeneCopoeia, Rockville, MD) and the pGL4.30 [luc2P/NFAT-RE/Hygro] reporter plasmid (Promega, Madison, WI). Clonal cells were maintained in Growth Media (McCoy's 5A, 10% FBS, 495 μg/ml hygromycin, 2 μg/ml puromycin, 100 units/ml penicillin, and 100 ug/ml streptomycin). The day before assay, cells were plated to white 384-well microplates at 3000 (MRGPRX2) cells/well in 10 ul Assay Media (McCoy's 5A, 2% charcoal dextran stripped FBS, 100 units/ml penicillin, and 100 ug/ml streptomycin) (Gibco, Thermo Fisher) and allowed to adhere overnight. The following day, serially diluted compound stocks were added directly to the cells (final DMSO concentration of 0.5%) and pre-incubated for 30 minutes at 37° C., 5% CO2. The final concentration of Substance P (Tocris, Minneapolis, MN, or PEPTIDE INSTITUTE, Osaka, Japan) corresponding to EC80 was added to stimulate the (MRGPRX2) cells. Cells were returned to the incubator for 6 hrs, after which 5 ul of ONE-GLO substrate (Promega) was added. Luminescence was read within 15 minutes (BioTek, Winooski, VT or infinite M1000Pro, Tecan Japan, Kanagawa, Japan). Percent inhibition for each test compound was calculated using the formula: […] where: • A=the luminescence count of the “test compound” well • B=the median luminescence count of the “Vehicle (0.5% DMSO)” wells • C═the median luminescence count of the “Vehicle (0.5% DMSO)+5 uM of substance P” wells The mean percent inhibition of each concentration of “test compound” was used to generate dose-response curves. IC50 values were calculated using a four-parameter logistic fit to the data using GraphPad Prism software. • +++: […]
Usually IC50 stands for the concentration at which inhibition is half-maximal. A higher IC50 goes with weaker potency in that assay. For the molecule `Cn1cc(-c2c(-c3c(C(F)F)nn4c3OC[C@@H](F)C4)[nH]c3ncccc23)c(C#N)n1` [EX. 449], the half-maximal inhibitory concentration (IC50) came to 2.6 nM.
Same read-out and setting: with `Cn1cc(-c2c(-c3c(C(F)F)nn4c3OC[C@@H](OCC(C)(C)O)C4)[nH]c3ncccc23)c(OC(F)F)n1` [EX. 535] the figure was 2 nM.

Staying with this assay, now noted: U2OS cells stably transfected with MRGPRX2 and NFAT-RE luciferase reporter; Substance P at EC80; class symbols.
Molecule `N#Cc1ccccc1-c1c(-c2c[nH]nc2C(F)(F)F)[nH]c2ncccc12` [EX. 94] came in with an IC50 of under 10 nM.
Same read-out and setting: with `Cn1cc(-c2c(-c3c(C(F)F)nn4c3OC[C@@H](F)C4)[nH]c3ncccc23)c(C#N)n1` [EX. 449] the figure was under 10 nM; with `CC(=O)NCCO[C@@H]1COc2c(-c3[nH]c4ncccc4c3-c3cn(C)nc3OC(F)F)c(C(F)F)nn2C1` [EX. 537], under 10 nM; with `COc1ccc(F)cc1-c1[nH]c2ncccc2c1-c1cc(C)ccc1F` [EX. 21, 2-(5-fluoro-2-methoxy-phenyl)-3-(2-fluoro-5-methyl-phenyl)-1H-pyrrolo[2,3-b]pyridine], under 10 nM.
`[2H]C([2H])([2H])Oc1ccc(C#N)c(-c2c(-c3c(C)nn4c3OCC[C@H]4C)[nH]c3ncccc23)c1` [EX. 178] gave an IC50 of under 10 nM.
Still for that read-out and setting: with `COc1ccc(C#N)c(-c2c(-c3c(C(F)F)nn4c3OCC(N)C4)[nH]c3ncccc23)c1` (stereo not drawn) [EX. 357] the figure was under 10 nM; with `[2H]C([2H])([2H])Oc1ccc(C#N)c(-c2c(-c3c(C(F)F)nn4c3OCCC4)[nH]c3ncccc23)c1` [EX. 247], under 10 nM.
Same read-out and setting: as for `Cc1cc(-c2c(-c3c(C4CC4)nn4c3OC[C@@H](NS(C)(=O)=O)C4)[nH]c3ncccc23)c(C#N)s1` [EX. 457], the figure is under 10 nM.
On the same count and under the same terms, as for `N#Cc1ccccc1-c1c(-c2c[nH]nc2C(F)(F)F)[nH]c2nccc(F)c12` [EX. 77], the figure is under 10 nM.
`Cc1ccc(C#N)c(-c2c(-c3cn(C)nc3C(F)F)[nH]c3ncccc23)c1` [EX. 99] registered a 50% inhibitory concentration (IC50) of under 10 nM.
The same measure, in the same setting: with `CN(C)S(=O)(=O)N[C@@H]1COc2c(-c3[nH]c4ncccc4c3-c3cn(C)nc3OC(F)F)c(C(F)F)nn2C1` [EX. 576] the figure was under 10 nM.
On the same count and under the same terms, as for `COc1ccc(C#N)c(-c2c(-c3c(C)nn4cc(F)cnc34)[nH]c3ncccc23)c1` [EX. 182], the figure is under 10 nM; as for `[2H]C([2H])([2H])Oc1ccc(C#N)c(-c2c(-c3c(C)nn4cc[nH]c34)[nH]c3ncccc23)c1` [EX. 169], under 10 nM; as for `Cn1cc(-c2c(-c3c(C(F)F)nn4c3OC[C@@H](OCC(C)(C)O)C4)[nH]c3ncccc23)c(OC(F)F)n1` [EX. 535], under 10 nM.
The same measure, in the same setting: as for `FC(F)Oc1nnc(Cl)cc1-c1c(-c2c(C(F)F)nn3c2OCCC3)[nH]c2ncccc12` [EX. 389, 3-(3-(6-chloro-3-(difluoromethoxy)pyridazin-4-yl)-1H-pyrrolo[2,3-b]pyridin-2-yl)-2-(difluoromethyl)-6,7-dihydro-5H-pyrazolo[5,1-b] [1,3]oxazine], the figure is 10 to 100 nM; as for `Fc1ccc(-c2c(-c3c(C(F)F)nn4c3OC[C@@H](F)C4)[nH]c3ncccc23)c(OC(F)F)c1` [EX. 447], under 10 nM; as for `COc1ccc(C#N)c(-c2c(-c3c(C(F)F)nn4c3OC[C@@H](F)C4)[nH]c3ncccc23)c1` [EX. 471], under 10 nM.
`COc1ncccc1-c1c(-c2c(C(F)F)nn3c2OCCC3)[nH]c2ncccc12` [EX. 429, 2-(difluoromethyl)-3-(3-(2-methoxypyridin-3-yl)-1H-pyrrolo[2,3-b]pyridin-2-yl)-6,7-dihydro-5H-pyrazolo[5,1-b] [1,3]oxazine]: the IC50 was under 10 nM.
Same read-out and setting: with `CO[C@@H]1COc2c(-c3[nH]c4ncccc4c3-c3cccnc3OC(F)F)c(C(F)F)nn2C1` [EX. 499] the figure was under 10 nM; with `O[C@@H]1COc2c(-c3[nH]c4ncccc4c3-c3csnc3OC(F)F)c(C(F)F)nn2C1` [EX. 461], under 10 nM; with `Cc1cc(-c2c(-c3cnn4c3OCCC4)[nH]c3ncccc23)c(C#N)s1` [EX. 380], 10 to 100 nM.
On the same count and under the same terms, with `N#Cc1ccccc1-c1c(-c2ccccc2OCc2ccccc2)[nH]c2ncccc12` [EX. 109] the figure was under 10 nM; with `CCn1cc(-c2c(-c3c(C(F)F)nn4c3OCCC4)[nH]c3ncccc23)c(OC(F)F)n1` [EX. 400, 3-[3-[3-(difluoromethoxy)-1-ethyl-pyrazol-4-yl]-1H-pyrrolo[2,3-b]pyridin-2-yl]-2-(difluoromethyl)-6,7-dihydro-5H-pyrazolo[5,1-b] [1,3]oxazine], 10 to 100 nM; with `CO[C@@H]1COc2c(-c3[nH]c4ncccc4c3-c3cc(C)sc3C#N)c(C(F)F)nn2C1` [EX. 506], under 10 nM.
The same measure, in the same setting: as for `Cc1nn2c(c1-c1[nH]c3ncccc3c1-c1cn(C)nc1OC(F)F)OCCC2` [EX. 421, 3-(3-(3-(difluoromethoxy)-1-methyl-1H-pyrazol-4-yl)-1H-pyrrolo[2,3-b]pyridin-2-yl)-2-methyl-6,7-dihydro-5H-pyrazolo[5,1-b] [1,3]oxazine], the figure is under 10 nM.
On to `COc1ccc(C#N)c(-c2c(-c3c(C(F)F)nn4c3OC[C@@H](NC(C)=O)C4)[nH]c3ncccc23)c1` [EX. 364], for which the 50% inhibitory concentration (IC50) is under 10 nM.
With `[2H]C([2H])([2H])Oc1ccc(C#N)c(-c2c(-c3c(C)nn4c3OCC4)[nH]c3ncccc23)c1` [EX. 238], the half-inhibitory concentration (IC50) was under 10 nM.
The same measure, in the same setting: as for `Cn1cc(-c2c(-c3c(C(F)F)nn4c3OC[C@@H](NC(=O)[C@H]3C[C@@H](O)C3)C4)[nH]c3ncccc23)c(OC(F)F)n1` [EX. 564], the figure is under 10 nM.
With `Cn1nc(-c2[nH]c3ncccc3c2-c2ccccc2C#N)c(C(F)(F)F)n1` [EX. 241], the IC50 was under 10 nM.
On the same count and under the same terms, with `[2H]C([2H])([2H])Oc1ccc(C#N)c(-c2c(-c3c(C(F)F)nn4c3OCC(O)C4)[nH]c3ncccc23)c1` (stereo not drawn) [EX. 202] the figure was under 10 nM; with `[2H]C([2H])([2H])Oc1ccc(C#N)c(-c2c(-c3c(C4CC4)nn4c3OCCC4)[nH]c3ncccc23)c1` [EX. 177], under 10 nM; with `N#Cc1ncccc1-c1c(-c2c(C(F)F)nn3c2OC[C@@H](O)C3)[nH]c2ncccc12` [EX. 477], under 10 nM.
On the same count and under the same terms, as for `[2H]C([2H])([2H])Oc1ccc(C#N)c(-c2c(-c3c(CF)nn4c3OCCC4)[nH]c3ncccc23)c1` [EX. 235], the figure is under 10 nM; as for `Cn1cc(-c2c(-c3c(C(F)F)nn4c3OC[C@@H](NC(=O)[C@H]3CC3(F)F)C4)[nH]c3ncccc23)c(OC(F)F)n1` [EX. 553], under 10 nM.
On the same count and under the same terms, with `COc1ccc(C#N)c(-c2c(-c3c(C)nn4c3OCC4)[nH]c3ncccc23)c1` [EX. 230] the figure was under 10 nM; with `[2H]C([2H])([2H])n1cc(-c2[nH]c3ncccc3c2-c2cc(OC)ccc2C#N)c(C(F)F)n1` [EX. 377], under 10 nM; with `COc1ccccc1-c1[nH]c2ncccc2c1-c1cc(C)ccc1C#N` [EX. 316], under 10 nM.
Turning to `Cn1cc(-c2[nH]c3ncccc3c2-c2cc(Cl)ccc2C#N)c(C(F)F)n1` [EX. 375, 4-chloro-2-[2-[3-(difluoromethyl)-1-methyl-pyrazol-4-yl]-1 H-pyrrolo[2,3-b]pyridin-3-yl]benzonitrile], the IC50 was under 10 nM.
Same read-out and setting: with `N#Cc1cnccc1-c1c(-c2c(C(F)F)nn3c2OCCC3)[nH]c2ncccc12` [EX. 408] the figure was under 10 nM; with `CNC(=O)COC(=O)N[C@@H]1COc2c(-c3[nH]c4ncccc4c3-c3cn(C)nc3OC(F)F)c(C(F)F)nn2C1` [EX. 590], under 10 nM.
On the same count and under the same terms, as for `O[C@@H]1COc2c(-c3[nH]c4ncccc4c3-c3ccsc3Cl)c(C(F)F)nn2C1` [EX. 453], the figure is under 10 nM; as for `CS(=O)(=O)N[C@@H]1COc2c(-c3[nH]c4ncccc4c3-c3cccnc3OC(F)F)c(C(F)F)nn2C1` [EX. 521], under 10 nM.
On the same count and under the same terms, with `Cn1cc(-c2c(-c3c(C(F)F)nn4c3OC[C@@H](N3CCOC3=O)C4)[nH]c3ncccc23)c(OC(F)F)n1` [EX. 579] the figure was under 10 nM.
In turn, `N#Cc1ccccc1-c1c(-c2cnn3c2OCCC3)[nH]c2ncccc12` [EX. 50] had an IC50 of under 10 nM.
Molecule `Cn1cc(-c2c(-c3c(C(F)F)nn4c3OC[C@@](C)(OCC(N)=O)C4)[nH]c3ncccc23)c(OC(F)F)n1` [EX. 482] had a 50% inhibitory concentration (IC50) of under 10 nM.
The same measure, in the same setting: as for `[2H]C([2H])([2H])Oc1ccc(C#N)c(-c2c(-c3c(C(F)F)nn4c3OCC(OC)C4)[nH]c3ncccc23)c1` (stereo not drawn) [EX. 201], the figure is under 10 nM; as for `COc1ccc(C#N)c(-c2c(-c3c(C)nn4cc(O)cnc34)[nH]c3ncccc23)c1` [EX. 181], under 10 nM.
As for `Cc1ccc(F)c(-c2c(-c3cn(C)nc3C(F)(F)F)[nH]c3ncccc23)c1` [EX. 299], the IC50 is under 10 nM.
`[2H]C([2H])([2H])Oc1ccc(C#N)c(-c2c(-c3c(OC)nn4cccnc34)[nH]c3ncccc23)c1` [EX. 175] yielded an IC50 of under 10 nM.
